Test results: ChEMBL document CHEMBL3872259, “Synthesis, characterization, and in vitro SAR evaluation of N,N'-bis(arylmethyl)-C2-alkyl substituted imidazolium salts” (Bioorg Med Chem Lett, 2017)
Each block holds one compound with its values, some of them ahead of it.

Assays:
[1] = Antiproliferative activity against human HOP62 cells assessed as cell growth at 10 uM measured after 48 hrs by sulforhodamine B assay relative to control; assay type: functional; settings: HOP-62, 48 h, read-out: Activity
[2] = Antiproliferative activity against human EKVX cells assessed as cell growth at 10 uM measured after 48 hrs by sulforhodamine B assay relative to control; assay type: functional; settings: read-out: Activity
[3] = Antiproliferative activity against human A549/ATCC cells assessed as cell growth at 10 uM measured after 48 hrs by sulforhodamine B assay relative to control; assay type: functional; settings: A549, 48 h, read-out: Activity
[4] = Antiproliferative activity against human NCI-H460 cells assessed as reduction in cell viability measured after 72 hrs by MTT assay; assay type: functional, cell-based; settings: NCI-H460, 72 h
[5] = Antiproliferative activity against human NCI-H1975 cells assessed as reduction in cell viability measured after 72 hrs by MTT assay; assay type: functional, cell-based; settings: NCI-H1975, 72 h
[6] = Antiproliferative activity against human HCC827 cells assessed as reduction in cell viability measured after 72 hrs by MTT assay; assay type: functional, cell-based; settings: HCC827, 72 h
[7] = Antiproliferative activity against human A549 cells assessed as reduction in cell viability measured after 72 hrs by MTT assay; assay type: functional, cell-based; settings: A549, 72 h
[8] = Antiproliferative activity against human HOP92 cells assessed as cell growth at 10 uM measured after 48 hrs by sulforhodamine B assay relative to control; assay type: functional; settings: HOP-92, 48 h, read-out: Activity
[9] = Antiproliferative activity against human NCI-H226 cells assessed as cell growth at 10 uM measured after 48 hrs by sulforhodamine B assay relative to control; assay type: functional; settings: NCI-H226, 48 h, read-out: Activity
[10] = Antiproliferative activity against human NCI-H23 cells assessed as cell growth at 10 uM measured after 48 hrs by sulforhodamine B assay relative to control; assay type: functional; settings: NCI-H23, 48 h, read-out: Activity
[11] = Antiproliferative activity against human NCI-H322M cells assessed as cell growth at 10 uM measured after 48 hrs by sulforhodamine B assay relative to control; assay type: functional; settings: read-out: Activity
[12] = Antiproliferative activity against human NCI-H460 cells assessed as cell growth at 10 uM measured after 48 hrs by sulforhodamine B assay relative to control; assay type: functional; settings: NCI-H460, 48 h, read-out: Activity
[13] = Antiproliferative activity against human NCI-H522 cells assessed as cell growth at 10 uM measured after 48 hrs by sulforhodamine B assay relative to control; assay type: functional; settings: NCI-H522, 48 h, read-out: Activity
[14] = Growth inhibition of human EKVX cells measured after 48 hrs by sulforhodamine B assay; assay type: functional
[15] = Growth inhibition of human HOP62 cells measured after 48 hrs by sulforhodamine B assay; assay type: functional; settings: HOP-62, 48 h
[16] = Growth inhibition of human HOP92 cells measured after 48 hrs by sulforhodamine B assay; assay type: functional; settings: HOP-92, 48 h
[17] = Growth inhibition of human NCI-H226 cells measured after 48 hrs by sulforhodamine B assay; assay type: functional; settings: NCI-H226, 48 h
[18] = Growth inhibition of human NCI-H23 cells measured after 48 hrs by sulforhodamine B assay; assay type: functional; settings: NCI-H23, 48 h
[19] = Growth inhibition of human NCI-H322M cells measured after 48 hrs by sulforhodamine B assay; assay type: functional
[20] = Growth inhibition of human NCI-H522 cells measured after 48 hrs by sulforhodamine B assay; assay type: functional; settings: NCI-H522, 48 h
[21] = Aqueous solubility of the compound; assay type: physicochemical; settings: buffer
[22] = read-out: LC50 (the source's name)

Compound: c1ccc2cc(Cn3cc[n+](Cc4ccc5ccccc5c4)c3)ccc2c1
growth at 10 µM [1]: 42.1% | growth at 10 µM [2]: 51.6% | growth at 10 µM [3]: 67.6% | GI50 [4]: 1.27 µM | IC50 [4]: 4 µM | TGI [4]: 10.4 µM | CC50 [4, 22]: 42 µM | IC50 [5]: 6 µM | IC50 [6]: 9 µM | GI50 [7]: 7.97 µM | LC50 [7]: 55.3 µM | TGI [7]: 22.9 µM | growth at 10 µM [8]: -13.3% | growth at 10 µM [9]: 52.1% | growth at 10 µM [10]: 41.6% | growth at 10 µM [11]: 62.8% | growth at 10 µM [12]: 39.6% | growth at 10 µM [13]: -11.7% | GI50 [14]: 2.51 µM | TGI [14]: 15.5 µM | CC50 [14, 22]: 4.75 µM | GI50 [15]: 3.26 µM | TGI [15]: 17 µM | CC50 [15, 22]: 45.9 µM | GI50 [16]: 0.16 µM | TGI [16]: 1.39 µM | CC50 [16, 22]: 15.2 µM | GI50 [17]: 1.72 µM | TGI [17]: 14.3 µM | CC50 [17, 22]: 71.9 µM | GI50 [18]: 0.901 µM | TGI [18]: 10.1 µM | CC50 [18, 22]: 39.4 µM | GI50 [19]: 8.4 µM | TGI [19]: 21.3 µM | CC50 [19, 22]: 47.3 µM | GI50 [20]: 0.393 µM | LC50 (50% lethal concentration) [20]: 26.8 µM | TGI [20]: 3.11 µM

Compound: OCc1n(Cc2ccc3ccccc3c2)cc[n+]1Cc1ccc2ccccc2c1.[Br-]
growth at 10 µM [1]: 75% | growth at 10 µM [2]: 83.3% | growth at 10 µM [3]: 68.6% | IC50 [4]: 14 µM | IC50 [5]: 7 µM | IC50 [6]: 12 µM | IC50 [7]: > 30 µM | solubility [21]: < 0.5 mM | growth at 10 µM [8]: -2.81% | growth at 10 µM [9]: 61.6% | growth at 10 µM [10]: 67.7% | growth at 10 µM [11]: 78.9% | growth at 10 µM [12]: 53.1%

Compound: Cc1n(Cc2ccc3ccccc3n2)cc[n+]1Cc1ccc2ccccc2n1.[Cl-]
growth at 10 µM [1]: 90.5% | growth at 10 µM [2]: 80.7% | growth at 10 µM [3]: 88.6% | IC50 [4]: 8 µM | IC50 [5]: 2 µM | IC50 [6]: 13 µM | IC50 [7]: 15 µM | solubility [21]: > 80 mM | growth at 10 µM [8]: 74.5% | growth at 10 µM [9]: 88.1% | growth at 10 µM [10]: 69.8% | growth at 10 µM [11]: 103% | growth at 10 µM [12]: 95% | growth at 10 µM [13]: 35.9%

More lines, main results first:

solubility [21]: > 80 mM
Compound: [Cl-].c1ccc(-c2n(Cc3ccc4ccccc4n3)cc[n+]2Cc2ccc3ccccc3n2)cc1
IC50 [4]: 8 µM | IC50 [5]: 2 µM | IC50 [6]: 8 µM | IC50 [7]: 14 µM

solubility [21]: > 10 mM
Compound: CCCCc1n(Cc2ccc3ccccc3n2)cc[n+]1Cc1ccc2ccccc2c1.[Cl-]
IC50 [4]: 3 µM | IC50 [5]: 2 µM | IC50 [6]: 6 µM | IC50 [7]: 3 µM

solubility [21]: > 10 mM
Compound: CCc1n(Cc2ccc3ccccc3c2)cc[n+]1Cc1ccc2ccccc2n1.[Cl-]
IC50 [5]: < 1 µM | IC50 [6]: 2 µM
